The source of these data is patent US20080171773A1, “FACTOR Xa INHIBITOR” (Pfizer Inc, priority 2006, published 2008).

Each structure is given as a SMILES string.

The test addresses T1, human factor Xa (Homo sapiens, UniProt P00742).
T1 construct: factor Xa, a serine protease that occupies a pivotal position in the coagulation cascade
Nature of the test: Factor Xa inhibitory activity: inhibition of human factor Xa cleavage of substrate S-2765. Format: biochemical. The following applies: 30 pM human factor Xa, substrate S-2765 at its Km, pH 7.4, 37° C.; mean of replicates (SD, SEM and n in separate columns). How it is done: The ability of compounds to act as inhibitors of human factor Xa catalytic activity can be assessed by determination of the concentration of test substance that inhibits by 50% (IC50) the ability of human factor Xa to cleave the chromogenic substrate S2765 (N-CBz-D-Arg-L-Gly-L-Arg-p-nitroanilide. 2HCl).
The assay was performed in triplicate using a final concentration of 30 pM of human factor Xa (diluted in buffer containing 10 mM HEPES, 150 mM NaCl, 0.1% bovine serum albumin (BSA), pH 7.4). The substrate, S-2765 (N-CBz-D-Arg-L-Gly-L-Arg-p-nitroanilide, 2HCl), was run at a final concentration equal to its Km value. The (R) enantiomer was serially diluted in 100% DMSO (final assay concentration=2% DMSO) to final concentrations of 1.0 μM to […]. Dilutions were transferred to a black polystyrene 96-plate microtiter assay plate at a volume of 2.5 μL/well. […] The reactions were initiated by the addition of 50 μL of pre-warmed substrate and immediately placed in the microplate reader pre-warmed at 37° C.
A fluorometric plate reader was used to continuously monitor the rate of change in relative fluorescence units (RFUS) per unit time. The assay plate was mixed once before reading. The fluorogenic emission was read every 44 seconds for 30 minutes (excitation/emission of λex=390 nm and λex=460 nm; automatic cutoff=455 nm) at 37° C.

T1 sequence (P00742 235-488 limits assumed): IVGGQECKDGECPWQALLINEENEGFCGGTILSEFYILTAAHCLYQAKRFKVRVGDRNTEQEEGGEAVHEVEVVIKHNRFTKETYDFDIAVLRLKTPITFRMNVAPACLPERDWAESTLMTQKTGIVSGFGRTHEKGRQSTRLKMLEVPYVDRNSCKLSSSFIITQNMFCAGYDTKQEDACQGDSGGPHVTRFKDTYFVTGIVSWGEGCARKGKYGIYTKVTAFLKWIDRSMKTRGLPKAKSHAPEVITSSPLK
T1 sequence (P00742 41-179 partner limits assumed): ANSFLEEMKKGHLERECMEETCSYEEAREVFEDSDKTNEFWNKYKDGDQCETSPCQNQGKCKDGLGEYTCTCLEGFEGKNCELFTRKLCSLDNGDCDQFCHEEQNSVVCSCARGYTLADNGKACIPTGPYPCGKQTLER

In the case of `C[C@@]1(C(=O)Nc2ccc(-n3ccccc3=O)cc2F)CC=NN1C(=O)Nc1ccc(Cl)cc1` [(S) enantiomer, (S)-5-Methyl-4,5-dihydro-pyrazole-1,5-dicarboxylic acid 1-[(4-chloro-phenyl)-amide] 5-{[2-fluoro-4-(2-oxo-2H-pyridin-1-yl)-phenyl]-amide}], the IC50 was determined as 0.141 µM.
The result for `C[C@]1(C(=O)Nc2ccc(-n3ccccc3=O)cc2F)CC=NN1C(=O)Nc1ccc(Cl)cc1` [(R) enantiomer, (R)-5-Methyl-4,5-dihydro-pyrazole-1,5-dicarboxylic acid 1-[(4-chloro-phenyl)-amide] 5-{[2-fluoro-4-(2-oxo-2H-pyridin-1-yl)-phenyl]-amide}] reads 0.000982 µM.
